This is an account of results in US8420658B2, “Use of Carboxyamidotriazole (CAI) orotate in macular degeneration” (Tactical Therapeutics Inc, priority 2006, dated 2013).

In assay [1] the test system is Human umbilical vein endothelial cells (HUVEC). The experiment in a line: Proliferation assay for endothelial cells (HUVEC), cell count after 3 days of treatment. The format is cell-based. The note with it: HUVEC treated with three different concentrations for 3 days; triplicate; FIG. 1. On the procedure: FIG. 1 illustrates the results of the proliferation assay for endothelial cells (HUVEC).
Human umbilical vein endothelial cells (HUVEC) were treated with three different concentrations of Carboxyamidotriazole or 5 amino 1,2,3-triazole orotate (CAI Orotate) for 3 days. The cell number of each culture under different treatment conditions was counted. The assays were done in triplicate and the data are expressed as mean +/− standard deviation.

The test system of assay [2] is Dunning rat model for prostate cancer. The settings on record: orotate salt of CAI compared with CAI; from U.S. Pat. Nos. 5,861,406 and 5,912,346; cited from earlier work.

With `NC(=O)c1nnn(Cc2cc(Cl)c(C(=O)c3ccc(Cl)cc3)c(Cl)c2)c1N.O=C(O)c1cc(=O)[nH]c(=O)[nH]1` [CAI Orotate, Carboxyamidotriazole or 5 amino 1,2,3-triazole orotate], in assay [1], the “Inhibition of angiogenesis (HUVEC cell number)” value was “inhibited angiogenesis in a dose related manner”. The “Antitumor effect compared with CAI” value in assay [2] was “improved antitumor effect”.
